# Measured values reported in patent US20100298141A1, “SUBSTITUTED PYRIDINE N-OXIDE HERBICIDES” (E. I. DU PONT DE NEMOURS AND COMPANY, priority 2007, published 2010).
# Tests used:
# [1] = system: giant foxtail; assay: Test A pre-/postemergence greenhouse test; type: in vivo, Setaria faberi; conditions: for Foxtail, Giant plant response rating: 0 to 100 scale
# How it was run: (§1)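 Untreated controls served as the reference for visual injury ratings taken about ten days after spraying. The non-phytotoxic solvent/surfactant formulation was applied preemergence to seeded loam and sand and postemergence to plants two to ten cm high.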
# [2] = system: morningglory; assay: Test A pre-/postemergence greenhouse test; type: in vivo, Ipomoea spp.; conditions: for Morningglory plant response rating: 0 to 100 scale
# How it was run: as §1
# [3] = system: redroot pigweed; assay: Test A pre-/postemergence greenhouse test; type: in vivo, Amaranthus retroflexus; conditions: for Pigweed plant response rating: 0 to 100 scale
# How it was run: as §1
# [4] = system: wheat; assay: Test A pre-/postemergence greenhouse test; type: in vivo, Triticum aestivum; conditions: for Wheat plant response rating: 0 to 100 scale
# How it was run: as §1
# [5] = system: blackgrass; assay: Test C pre-/postemergence test; type: in vivo, Alopecurus myosuroides
# How it was run: (§2)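 Seeds were planted and treated preemergence with test chemical in a non-phytotoxic solvent mixture containing surfactant. Postemergence applications of the same formulation went onto plants 2 to 18 cm tall (1- to 4-leaf stage). A dash marks no test result.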
# [6] = system: downy brome; assay: Test C pre-/postemergence test; type: in vivo, Bromus tectorum
# How it was run: as §2
# [7] = system: wheat; assay: Test C pre-/postemergence test; type: in vivo, Triticum aestivum; conditions: Preemergence
# How it was run: as §2
# [8] = system: wild oat; assay: Test C pre-/postemergence test; type: in vivo, Avena fatua; conditions: Preemergence
# How it was run: as §2
# [9] = system: catchweed bedstraw; assay: Test C pre-/postemergence test; type: in vivo, Galium aparine; conditions: Preemergence
# How it was run: as §2
# [10] = system: Surinam grass; assay: Test C pre-/postemergence test; type: in vivo, Brachiaria decumbens; conditions: Preemergence
# How it was run: as §2
# [11] = system: cocklebur; assay: Test C pre-/postemergence test; type: in vivo, Xanthium strumarium
# How it was run: as §2
# [12] = system: woolly cupgrass; assay: Test C pre-/postemergence test; type: in vivo, Eriochloa villosa; conditions: Preemergence
# How it was run: as §2
# [13] = system: giant foxtail; assay: Test C pre-/postemergence test; type: in vivo, Setaria faberii; conditions: Preemergence
# How it was run: as §2
# [14] = system: kochia; assay: Test C pre-/postemergence test; type: in vivo, Kochia scoparia; conditions: Preemergence
# How it was run: as §2
# [15] = system: lambsquarters; assay: Test C pre-/postemergence test; type: in vivo, Chenopodium album; conditions: Preemergence
# How it was run: as §2
# [16] = system: eastern black nightshade; assay: Test C pre-/postemergence test; type: in vivo, Solanum ptycanthum; conditions: Preemergence
# How it was run: as §2
# [17] = system: common ragweed; assay: Test C pre-/postemergence test; type: in vivo, Ambrosia elation; conditions: Preemergence
# How it was run: as §2
# [18] = system: common (oilseed) sunflower; assay: Test C pre-/postemergence test; type: in vivo, Helianthus annuus; conditions: Preemergence
# How it was run: as §2
# [19] = system: velvetleaf; assay: Test C pre-/postemergence test; type: in vivo, Abutilon theophrasti; conditions: Preemergence
# How it was run: as §2
# [20] = Postemergence, 125 g ai/ha, 0 is no effect, 100 is complete control
# [21] = Postemergence, 500 g ai/ha, 0 is no effect, 100 is complete control
# [22] = Preemergence, 125 g ai/ha, 0 no effect, 100 complete control
# [23] = Preemergence, 500 g ai/ha, 0 to 100 scale where 0 is no effect and 100 is complete control
# [24] = 62 g ai/ha, Preemergence, scale 0 to 100
# [25] = Preemergence, 31 g ai/ha, scale 0 to 100 (0 no effect, 100 complete control)
# [26] = preemergence, 125 g ai/ha, scale 0 (no effect) to 100 (complete control)
# [27] = 31 g ai/ha, scale 0 to 100 (0 no effect, 100 complete control)
compound,measurement,setting,value
Cn1nc(C(F)(F)F)c(CS(=O)(=O)c2ccc(Cl)c[n+]2[O-])c1Cl [Compound 18],"Foxtail, Giant plant response rating",[1]; [20],60
same,"Foxtail, Giant plant response rating",[1]; [21],80
same,"Foxtail, Giant plant response rating",[1]; [22],90
same,"Plant response rating, Foxtail, Giant",[1]; [23],100
same,Morningglory plant response rating,[2]; [20],0
same,Morningglory plant response rating,[2]; [21],20
same,Morningglory plant response rating,[2]; [22],0
same,"Plant response rating, Morningglory",[2]; [23],20
same,Pigweed plant response rating,[3]; [20],0
same,Pigweed plant response rating,[3]; [21],60
same,Pigweed plant response rating,[3]; [22],90
same,"Plant response rating, Pigweed",[3]; [23],100
same,Wheat plant response rating,[4]; [20],0
same,Wheat plant response rating,[4]; [21],30
same,Wheat plant response rating,[4]; [22],0
same,"Plant response rating, Wheat",[4]; [23],20
same,Blackgrass plant response rating,[5]; [24],0
same,"Plant response rating, Blackgrass",[5]; [25],0
same,"Plant response rating (0 to 100), Blackgrass","[5]; Preemergence, 250 g ai/ha",98
same,Blackgrass plant response rating,[5]; [26],98
same,"Bromegrass, Downy plant response rating",[6]; [24],0
same,"Plant response rating, Bromegrass, Downy",[6]; [25],0
same,"Plant response rating (0 to 100), Bromegrass, Downy","[6]; Preemergence, 250 g ai/ha",0
same,"Bromegrass, Downy plant response rating",[6]; [26],0
same,Wheat plant response rating,"[7]; 62 g ai/ha, scale 0 to 100",0
same,"Plant response rating, Wheat",[7]; [27],0
same,"Oat, Wild plant response rating","[8]; 62 g ai/ha, scale 0 to 100",0
same,"Plant response rating, Oat, Wild",[8]; [27],0
same,Galium plant response rating,"[9]; 62 g ai/ha, scale 0 to 100",0
same,"Plant response rating, Galium",[9]; [27],0
same,"Plant response rating (0 to 100), Galium",[9]; 250 g ai/ha,90
same,Surinam Grass plant response rating,"[10]; 62 g ai/ha, scale 0 to 100",0
same,"Plant response rating, Surinam Grass",[10]; [27],0
same,Cocklebur plant response rating,[11]; [24],0
same,"Plant response rating, Cocklebur",[11]; [25],0
same,"Plant response rating (0 to 100), Cocklebur","[11]; Preemergence, 250 g ai/ha",0
same,Cocklebur plant response rating,[11]; [26],0
same,"Cupgrass, Woolly plant response rating","[12]; 62 g ai/ha, scale 0 to 100",80
same,"Plant response rating, Cupgrass, Woolly",[12]; [27],10
same,"Plant response rating (0 to 100), Cupgrass, Woolly",[12]; 250 g ai/ha,100
same,"Foxtail, Giant plant response rating","[13]; 62 g ai/ha, scale 0 to 100",85
same,"Plant response rating, Foxtail, Giant",[13]; [27],65
same,"Plant response rating (0 to 100), Foxtail, Giant",[13]; 250 g ai/ha,100
same,Kochia plant response rating,"[14]; 62 g ai/ha, scale 0 to 100",0
same,"Plant response rating, Kochia",[14]; [27],0
same,Lambsquarters plant response rating,"[15]; 62 g ai/ha, scale 0 to 100",0
same,"Plant response rating, Lambsquarters",[15]; [27],0
same,Nightshade plant response rating,"[16]; 62 g ai/ha, scale 0 to 100",60
same,"Plant response rating, Nightshade",[16]; [27],60
same,Ragweed plant response rating,"[17]; 62 g ai/ha, scale 0 to 100",0
same,"Plant response rating, Ragweed",[17]; [27],0
same,Sunflower plant response rating,"[18]; 62 g ai/ha, scale 0 to 100",0
same,"Plant response rating, Sunflower",[18]; [27],0
same,Velvetleaf plant response rating,"[19]; 62 g ai/ha, scale 0 to 100",0
same,"Plant response rating, Velvetleaf",[19]; [27],0
